In patent publication EP4488270A1, “TRIAZOLE COMPOUNDS FOR THE CONTROL OF INVERTEBRATE PESTS” (priority 2023, dated 2025):

Key:
Format in all cases: in vivo
[1] = test system: yellow fever mosquito (Aedes aegypti); assay: whole plant or invertebrate; details: 48 h, larval mortality, 2 days, 28 ± 1°C, read-out: mortality in comparison with untreated controls
Procedure: B.5 Yellow fever mosquito (Aedes aegypti)
For evaluating control of yellow fever mosquito (Aedes aegypti) the test unit consisted of 96-well-microtiter plates containing 200µl of tap water per well and 5-15 freshly hatched A. aegypti larvae.
The active compounds were formulated using a solution containing 75% (v/v) water and 25% (v/v) DMSO. Different concentrations of formulated compounds or mixtures were sprayed onto the insect diet at 2.5µl, using a custom-built micro atomizer, at two replications.
After application, microtiter plates were incubated at 28 ± 1°C, 80 ± 5 % RH for 2 days. Larval mortality was then visually assessed.

[2] = test system: boll weevil (Anthonomus grandis); assay: Boll weevil test, insect diet with eggs in 96-well microtiter plates; details: 120 h, read-out: mortality in comparison with untreated controls
Procedure: B.3 Boll weevil (Anthonomus grandis)
For evaluating control of boll weevil (Anthonomus grandis), the test unit consisted of 96-well-microtiter plates containing an insect diet and 5-10 A. grandis eggs.
The compounds were formulated using a solution containing 75% v/v water and 25% v/v DMSO. Different concentrations of formulated compounds were sprayed onto the insect diet at 5µl, using a custom-built micro atomizer, at two replications.
After application, microtiter plates were incubated at about 25 ± 1°C and about 75 ± 5 % relative humidity for 5 days. Egg and larval mortality was then visually assessed.

[3] = test system: Orchid thrips (Dichromothrips corbetti); assay: Orchid thrips floral-immersion test; details: adult thrips on dipped orchid petals, 72 hours after treatment, read-out: mortality in comparison with untreated controls
Procedure: B.6 Orchid thrips (Dichromothrips corbetti)
Dichromothrips corbetti adults used for bioassay are obtained from a colony maintained continuously under laboratory conditions. For testing purposes, the test compound is diluted in a 1:1 mixture of acetone:water (vol:vol), plus Kinetic at a rate of 0.01% v/v.
Thrips potency of each compound is evaluated by using a floral-immersion technique. Each orchid petal is dipped into treatment solution and allowed to dry in Petri dishes. Treated petals are placed into individual re-sealable plastic along with about 20 adult thrips. All test arenas are held under dark condition and a temperature of about 28°C for duration of the assay. The percent mortality is recorded 72 hours after treatment.

[4] = test system: tobacco budworm (Heliothis virescens); assay: Tobacco budworm test, insect diet with eggs in 96-well microtiter plates; details: 120 h, egg and larval mortality, 5 days, about 28 ± 1°C, read-out: mortality in comparison with untreated controls
Procedure: B.2 Tobacco budworm (Heliothis virescens)
For evaluating control of tobacco budworm (Heliothis virescens), the test unit consisted of 96-well-microtiter plates containing an insect diet and 15-25 H. virescens eggs.
The compounds were formulated using a solution containing 75% v/v water and 25% v/v DMSO. Different concentrations of formulated compounds were sprayed onto the insect diet at 10µl, using a custom-built micro atomizer, at two replications.
After application, microtiter plates were incubated at about 28 ± 1°C and about 80 ± 5 % relative humidity for 5 days. Egg and larval mortality was then visually assessed.

[5] = test system: green peach aphid (Myzus persicae); assay: Green peach aphid systemic test, artificial diet under membrane in 96-well microtiter plates; details: 72 h, adult aphids on treated diet, 3 days, about 23 ± 1°C, read-out: mortality in comparison with untreated controls
From the text: B.1 Green Peach Aphid (Myzus persicae)
For evaluating control of green peach aphid (Myzus persicae) through systemic means, the test unit consisted of 96-well-microtiter plates containing liquid artificial diet under an artificial mem brane.
The compounds were formulated using a solution containing 75% v/v water and 25% v/v DMSO. Different concentrations of formulated compounds were pipetted into the aphid diet, using a custom built pipetter, at two replications.
After application, 5 - 8 adult aphids were placed on the artificial membrane inside the microtiter plate wells. The aphids were then allowed to suck on the treated aphid diet and incubated at about 23 ± 1°C and about 50 ± 5 % relative humidity for 3 days. Aphid mortality and fecundity was then visually assessed.

[6] = test system: Southern armyworm (Spodoptera eridania), 2nd instar larvae; assay: Southern armyworm foliar spray test on lima bean plants; details: 96 h, 4 days after treatment, read-out: mortality in comparison with untreated controls
Procedure: B.4. Southern armyworm (Spodoptera eridania), 2nd instar larvae
The active compounds were formulated by a Tecan liquid handler in 100% cyclohexanone as a 10,000-ppm solution supplied in tubes. The 10,000-ppm solution was serially diluted in 100% cyclohexanone to make interim solutions. These served as stock solutions for which final dilutions were made by the Tecan in 50% acetone:50% water (v/v) into 10 or 20ml glass vials. A non-ionic surfactant (Kinetic®) was included in the solution at a volume of 0.01% (v/v). The vials were then inserted into an automated electrostatic sprayer equipped with an atomizing nozzle for application to plants/insects. Lima bean plants (variety Sieva) were grown 2 plants to a pot and selected for treatment at the 1st true leaf stage. Test solutions were sprayed onto the foliage by an automated electrostatic plant sprayer equipped with an atomizing spray nozzle. The plants were dried in the sprayer fume hood and then removed from the sprayer. Each pot was placed into perforated plastic bags with a zip closure. Ten to 11 armyworm larvae were placed into the bag and the bags zipped closed. […] Mortality and reduced feeding were assessed 4 days after treatment, compared to untreated control plants.

CC(NC(=O)c1cc(C(F)(F)F)cc(C(F)(F)F)c1)c1nccnc1-c1ncn(C2(C(N)=O)CC2)n1 (stereo not drawn) [I-2, N-[1-[3-[1-(1-carbamoylcyclopropyl)-1,2,4-triazol-3-yl]pyrazin-2-yl]ethyl]-3,5-bis(trifluoromethyl)benzamide]
≥ 75%: mortality at 2500 ppm [1] | mortality at 2500 ppm [2] | mortality at 300 ppm [3] | mortality at 2500 ppm [4] | mortality at 2500 ppm [5] | mortality at 300 ppm [6]

CC(NC(=O)c1cc(C(F)(F)F)cc(C(F)(F)F)c1)c1nccnc1-c1ncn(C2(C#N)CC2)n1 (stereo not drawn) [I-3, N-[1-[3-[1-(1-cyanocyclopropyl)-1,2,4-triazol-3-yl]pyrazin-2-yl]ethyl]-3,5-bis(trifluoromethyl)benzamide]
≥ 75%: mortality at 2500 ppm [1] | mortality at 2500 ppm [2] | mortality at 300 ppm [3] | mortality at 2500 ppm [4] | mortality at 2500 ppm [5] | mortality at 300 ppm [6]
